# The supplement of paper PMC10627819
# Tested on: S. pneumoniae D39V
# Assay: fitness (endpoint OD595 vs no drug) (fraction); higher = more growth
# In short: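 In 384-well plates at 37 °C, cultures began at OD595 0.01 in 30 µl, with 55 µl used for S. pneumoniae. OD595 readings every 30 min for 14 h were corrected by the first reading. Fitness divides the stationary-phase transition optical density by the robust mean of no-drug control wells. The result is capped at 1.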
# [1] = first compound 250 µg/mL, partner 1 µg/mL
# [2] = first compound 250 µg/mL, partner 2 µg/mL
# [3] = first compound 500 µg/mL, partner 1 µg/mL
# [4] = first compound 500 µg/mL, partner 2 µg/mL
# [5] = first compound 1000 µg/mL, partner 1 µg/mL
# [6] = first compound 1000 µg/mL, partner 2 µg/mL
# [7] = first compound 250 µg/mL, partner 4 µg/mL
# [8] = first compound 500 µg/mL, partner 4 µg/mL
# 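Note: OD595 on entry to stationary phase over no-drug wells; at most 1.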
smiles,measurement,setting,value
CC(=O)Oc1ccccc1C(=O)O [Acetylsalicylic acid] + CC[C@H]1OC(=O)[C@H](C)[C@@H](O[C@H]2C[C@@](C)(OC)[C@@H](O)[C@H](C)O2)[C@H](C)[C@@H](O[C@@H]2O[C@H](C)C[C@H](N(C)C)[C@H]2O)[C@](C)(OC)C[C@@H](C)C(=O)[C@H](C)[C@@H](O)[C@]1(C)O [Clarithromycin],fitness,"first compound 250 µg/mL, partner 0.007812 µg/mL, one replicate",0.824
same,fitness,"first compound 250 µg/mL, partner 0.01562 µg/mL, one replicate",0.783
same,fitness,"first compound 250 µg/mL, partner 0.03125 µg/mL, one replicate",0.621
same,fitness,"first compound 250 µg/mL, partner 0.0625 µg/mL",0.642
same,fitness,"first compound 250 µg/mL, partner 0.07 µg/mL",0.195
same,fitness,"first compound 250 µg/mL, partner 0.125 µg/mL",0.369
same,fitness,"first compound 250 µg/mL, partner 0.14 µg/mL",0.137
same,fitness,"first compound 250 µg/mL, partner 0.25 µg/mL",0.133
same,fitness,"first compound 250 µg/mL, partner 0.28 µg/mL",0.104
same,fitness,"first compound 500 µg/mL, partner 0.007812 µg/mL, one replicate",0.781
same,fitness,"first compound 500 µg/mL, partner 0.01562 µg/mL, one replicate",0.763
same,fitness,"first compound 500 µg/mL, partner 0.03125 µg/mL, one replicate",0.627
same,fitness,"first compound 500 µg/mL, partner 0.0625 µg/mL",0.586
same,fitness,"first compound 500 µg/mL, partner 0.07 µg/mL",0.228
same,fitness,"first compound 500 µg/mL, partner 0.125 µg/mL",0.359
same,fitness,"first compound 500 µg/mL, partner 0.14 µg/mL",0.167
same,fitness,"first compound 500 µg/mL, partner 0.25 µg/mL",0.147
same,fitness,"first compound 500 µg/mL, partner 0.28 µg/mL",0.108
same,fitness,"first compound 1000 µg/mL, partner 0.007812 µg/mL, one replicate",0.281
same,fitness,"first compound 1000 µg/mL, partner 0.01562 µg/mL, one replicate",0.193
same,fitness,"first compound 1000 µg/mL, partner 0.03125 µg/mL, one replicate",0.257
same,fitness,"first compound 1000 µg/mL, partner 0.0625 µg/mL",0.405
same,fitness,"first compound 1000 µg/mL, partner 0.07 µg/mL",0.155
same,fitness,"first compound 1000 µg/mL, partner 0.125 µg/mL",0.148
same,fitness,"first compound 1000 µg/mL, partner 0.14 µg/mL",0.139
same,fitness,"first compound 1000 µg/mL, partner 0.25 µg/mL",0.0751
same,fitness,"first compound 1000 µg/mL, partner 0.28 µg/mL",0.0935
CC(=O)Oc1ccccc1C(=O)O [Acetylsalicylic acid] + O=C(O)[C@H]1/C(=C/CO)O[C@@H]2CC(=O)N21 [Clavulanic acid],fitness,"first compound 250 µg/mL, partner 0.5 µg/mL",0.954
same,fitness,[1],0.902
same,fitness,[2],0.884
same,fitness,"first compound 500 µg/mL, partner 0.5 µg/mL",0.967
same,fitness,[3],0.902
same,fitness,[4],0.819
same,fitness,"first compound 1000 µg/mL, partner 0.5 µg/mL",0.696
same,fitness,[5],0.696
same,fitness,[6],0.596
CN(C)[C@@H]1C(O)=C(C(N)=O)C(=O)[C@@]2(O)C(O)=C3C(=O)c4c(O)ccc(Cl)c4[C@@](C)(O)[C@H]3C[C@@H]12 [Chlortetracycline] + CO[C@H]1/C=C/O[C@@]2(C)Oc3c(C)c(O)c4c(O)c(c(/C=N/N5CCN(C)CC5)c(O)c4c3C2=O)NC(=O)/C(C)=C\C=C\[C@H](C)[C@H](O)[C@@H](C)[C@@H](O)[C@@H](C)[C@H](OC(C)=O)[C@@H]1C [Rifampicin],fitness,"first compound 0.012 µg/mL, partner 0.025 µg/mL, one replicate",0.844
same,fitness,"first compound 0.012 µg/mL, partner 0.05 µg/mL",0.729
same,fitness,"first compound 0.012 µg/mL, partner 0.1 µg/mL",0.472
same,fitness,"first compound 0.012 µg/mL, partner 0.2 µg/mL, one replicate",0
same,fitness,"first compound 0.024 µg/mL, partner 0.025 µg/mL, one replicate",0.793
same,fitness,"first compound 0.024 µg/mL, partner 0.05 µg/mL",0.687
same,fitness,"first compound 0.024 µg/mL, partner 0.1 µg/mL",0.429
same,fitness,"first compound 0.024 µg/mL, partner 0.2 µg/mL, one replicate",0
same,fitness,"first compound 0.048 µg/mL, partner 0.025 µg/mL, one replicate",0.642
same,fitness,"first compound 0.048 µg/mL, partner 0.05 µg/mL",0.46
same,fitness,"first compound 0.048 µg/mL, partner 0.1 µg/mL",0.272
same,fitness,"first compound 0.048 µg/mL, partner 0.2 µg/mL, one replicate",0
same,fitness,"first compound 0.375 µg/mL, partner 0.025 µg/mL",0.0932
same,fitness,"first compound 0.375 µg/mL, partner 0.05 µg/mL",0.077
same,fitness,"first compound 0.375 µg/mL, partner 0.1 µg/mL",0.102
same,fitness,"first compound 0.75 µg/mL, partner 0.025 µg/mL",0.0627
same,fitness,"first compound 0.75 µg/mL, partner 0.05 µg/mL",0.103
same,fitness,"first compound 0.75 µg/mL, partner 0.1 µg/mL",0.102
same,fitness,"first compound 1.5 µg/mL, partner 0.025 µg/mL",0.0877
same,fitness,"first compound 1.5 µg/mL, partner 0.05 µg/mL",0.113
same,fitness,"first compound 1.5 µg/mL, partner 0.1 µg/mL",0.14
CC(=O)Oc1ccccc1C(=O)O [Acetylsalicylic acid] + CN[C@@H]1[C@H](O[C@H]2[C@H](O[C@H]3[C@H](O)[C@@H](O)[C@H](N=C(N)N)[C@@H](O)[C@@H]3N=C(N)N)O[C@@H](C)[C@]2(O)C=O)O[C@@H](CO)[C@H](O)[C@H]1O [Streptomycin],fitness,[2],0.954
same,fitness,[7],0.977
same,fitness,"first compound 250 µg/mL, partner 8 µg/mL",0.929
same,fitness,"first compound 250 µg/mL, partner 16 µg/mL, one replicate",0.772
same,fitness,[4],0.928
same,fitness,[8],0.892
same,fitness,"first compound 500 µg/mL, partner 8 µg/mL",0.869
same,fitness,"first compound 500 µg/mL, partner 16 µg/mL, one replicate",0.605
same,fitness,[6],0.806
same,fitness,"first compound 1000 µg/mL, partner 16 µg/mL, one replicate",0.159
CC(=O)Oc1ccccc1C(=O)O [Acetylsalicylic acid] + CC1=C(C(=O)O)N2C(=O)[C@@H](NC(=O)[C@H](N)c3ccccc3)[C@H]2SC1 [Cephalexin],fitness,"first compound 250 µg/mL, partner 0.125 µg/mL, one replicate",0.955
same,fitness,"first compound 250 µg/mL, partner 0.25 µg/mL, one replicate",0.931
same,fitness,"first compound 250 µg/mL, partner 0.5 µg/mL, one replicate",0.923
same,fitness,[1],0.902
same,fitness,[2],0.611
same,fitness,[7],0.0549
same,fitness,"first compound 500 µg/mL, partner 0.125 µg/mL, one replicate",0.996
same,fitness,"first compound 500 µg/mL, partner 0.25 µg/mL, one replicate",0.961
same,fitness,"first compound 500 µg/mL, partner 0.5 µg/mL, one replicate",0.932
same,fitness,[3],0.89
same,fitness,[8],0.0473
same,fitness,"first compound 1000 µg/mL, partner 0.125 µg/mL, one replicate",0.935
same,fitness,"first compound 1000 µg/mL, partner 0.25 µg/mL, one replicate",0.913
same,fitness,"first compound 1000 µg/mL, partner 0.5 µg/mL, one replicate",0.92
same,fitness,[5],0.727
same,fitness,[6],0.391
same,fitness,"first compound 1000 µg/mL, partner 4 µg/mL",0.0319
C[C@H]1c2cccc(O)c2C(=O)C2=C(O)[C@]3(O)C(=O)C(C(N)=O)=C(O)[C@@H](N(C)C)[C@@H]3[C@@H](O)[C@@H]21 [Doxycycline] + CO/N=C(\C(=O)N[C@@H]1C(=O)N2C(C(=O)[O-])=C(C[N+]3(C)CCCC3)CS[C@H]12)c1csc(N)n1 [Cefepime],fitness,"first compound 0.003875 µg/mL, partner 0.0078 µg/mL, one replicate",≥ 1
same,fitness,"first compound 0.003875 µg/mL, partner 0.0155 µg/mL, one replicate",≥ 1
same,fitness,"first compound 0.003875 µg/mL, partner 0.031 µg/mL, one replicate",0.637
same,fitness,"first compound 0.00775 µg/mL, partner 0.0078 µg/mL, one replicate",≥ 1
same,fitness,"first compound 0.00775 µg/mL, partner 0.0155 µg/mL, one replicate",0.991
same,fitness,"first compound 0.00775 µg/mL, partner 0.031 µg/mL, one replicate",0.783
same,fitness,"first compound 0.0155 µg/mL, partner 0.007 µg/mL",0.944
same,fitness,"first compound 0.0155 µg/mL, partner 0.0078 µg/mL",≥ 1
same,fitness,"first compound 0.0155 µg/mL, partner 0.014 µg/mL",0.934
same,fitness,"first compound 0.0155 µg/mL, partner 0.0155 µg/mL",0.974
same,fitness,"first compound 0.0155 µg/mL, partner 0.028 µg/mL",0.858
same,fitness,"first compound 0.0155 µg/mL, partner 0.031 µg/mL",0.882
same,fitness,"first compound 0.031 µg/mL, partner 0.007 µg/mL",0.951
same,fitness,"first compound 0.031 µg/mL, partner 0.0078 µg/mL, one replicate",0.936
same,fitness,"first compound 0.031 µg/mL, partner 0.014 µg/mL",0.938
same,fitness,"first compound 0.031 µg/mL, partner 0.0155 µg/mL, one replicate",0.888
same,fitness,"first compound 0.031 µg/mL, partner 0.028 µg/mL",0.88
same,fitness,"first compound 0.031 µg/mL, partner 0.031 µg/mL, one replicate",0.834
same,fitness,"first compound 0.062 µg/mL, partner 0.0078 µg/mL, one replicate",0.84
same,fitness,"first compound 0.062 µg/mL, partner 0.0155 µg/mL, one replicate",0.779
same,fitness,"first compound 0.062 µg/mL, partner 0.031 µg/mL, one replicate",0.684
